Assay results from publication PMC10726355, “Small Molecule Ligands of the BET-like Bromodomain, SmBRD3, Affect Schistosoma mansoni Survival, Oviposition, and Development” (Journal of Medicinal Chemistry, 2023).
“Also recorded” adds a separate entry of the source. Where two headings read alike, the source gives them in different places.

Assays:
SmBRD3(2) = SmBRD3(2) (Schistosoma mansoni, UniProt A0A5K4ESD7); assay: biochemical; format: binding; settings: for N number, binding to SmBRD3(2), Repeat 1 / N number, binding to SmBRD3(2), Repeat 2 / N number, binding to SmBRD3(2), Mean / N number, binding to SmBRD3(2), Repeat 3: ITC stoichiometry; for N number, binding to SmBRD3(2), Mean: mean of repeats
S. mansoni adult worms = assay: Ex vivo adult worm screening (motility, IVLEs, pairing); parameters: species or system Schistosoma mansoni; settings: 20 μM in 0.2% DMSO; 72 h
Method: S. mansoni adult worms were recovered by hepatic portal vein perfusion from TO mice (Mus musculus HsdOLa:TO - Tuck Ordinary; Envigo, UK) that were percutaneously infected 7 weeks earlier with 180 cercariae.[65],[71] Following perfusion, schistosomes were washed and processed as previously described.[65],[66] Subsequently, schistosome pairs were seeded into 48 well tissue culture plates (1 worm pair/well, in duplicate) and dosed with the compounds (20 μM in 0.2% DMSO). DMSO (0.2%) and praziquantel (10 μM in 0.1% DMSO) were also included as negative and positive controls, respectively. Parasite motility was assessed by a digital image processing-based system (WormassayGP2),[66] modified after Wormassay.[72]In vitro laid eggs (IVLEs) were enumerated and the presence or absence of paired worms was noted.

S. mansoni schistosomula = assay: Ex vivo schistosomula screening (Roboworm high content imaging); parameters: species or system Schistosoma mansoni; settings: 72 h; for EC50: Schistosoma mansoni, ethyl esters (R=Et), 95% CI in brackets
Method: A high-throughput imaging platform that quantifies both phenotype and motility ex vivo, was used to screen compounds against schistosomula; their effects were assessed as previously described.[20] Briefly, the schistosomula stage of S. mansoni was obtained by mechanical transformation of cercariae, dispensed into 384-well tissue culture plates, and dosed with 20 μM (Figure 7) or 10 μM (Figure S48) of each compound. Following 72 h coincubation of the schistosomula and compound, the plate was subjected to high content imaging to quantify the effects of each compound.
S. mansoni schistosomula were obtained by mechanical transformation from cercariae as previously described,[64] distributed in 384-well tissue culture plates (PerkinElmer, catalogue number 6007460) at 120 parasites/well and dosed with the selected compounds as previously reported.[65]−[68] For this study, each compound (as 10 mM DMSO stock solution) was initially tested at two concentration points (20 and 10 μM final concentration, in duplicates) in at least four independent screens (Z′ scores above 0.35).[69] Each screen contained both positive (10 μM auranofin (AUR) in 0.625% DMSO) and negative (0.625% DMSO) controls. […] Following 72 h schistosomula/compound coincubation, the plate was analyzed by the Roboworm platform.[70] EC50 values were calculated from the titrated concentrations by nonlinear regression, after log transformation of concentrations and data normalization using GraphPad Prism 7.02.

SmBRD3(1,2) = SmBRD3(1,2) (Schistosoma mansoni, UniProt A0A5K4ESD7); assay: biochemical; format: binding; settings: for N number, binding to SmBRD3(1,2): ITC stoichiometry, n=1 ± error of curve fit
S. mansoni miracidia = assay: Ex vivo miracidia to sporocyst transformation screening; parameters: species or system Schistosoma mansoni; settings: 0.5-25 μM in 1% DMSO; 48 h; 26 °C
Method: S. mansoni miracidia were obtained by hatching of schistosome eggs as previously described.[73] The resulting miracidial suspension was collected, washed with Chernin’s balanced salt solution (CBSS),[73] and enumerated prior to being used for ex vivo miracidia to sporocyst screens as previously reported.[66],[73] Each compound was tested at 0.5, 2.0, 5.0, 10, and 25 μM final concentrations (in 1% DMSO). Each treatment was set up in duplicate (15–25 miracidia/well). Each titration was performed in three independent experiments (two technical replicates per data point). Parasites cultured in CBSS (containing 1% DMSO) were included as negative controls. After 48 h incubation at 26 °C in the dark, dead, fully transformed and partially transformed miracidia were enumerated as previously described.[74],[75]

chromLogD assay = format: physicochemical; settings: reversed phase HPLC column (Gemini NX C18), pH 7.4
Method: Lipophilicity: a chromLogD assay was carried out by the Physchem Team, Discovery Analytical, NCE Molecular Discovery at GSK. The chromatographic hydrophobicity index (CHI)[46],[47] values were measured using reversed phase HPLC column (50 × 2 mm […] Gemini NX C18, Phenomenex, UK) with fast acetonitrile gradient at starting mobile phase of pHs 2, 7.4, or 10.5. CHI values were derived directly from the gradient retention times using calibration parameters for standard compounds. The CHI value approximates to the volume % organic concentration when the compound elutes. CHI was linearly transformed into a chromLogD[48] value by least-squares fitting of experimental CHI values to calculated cLogP values for over 20000 research compounds.

CAD solubility assay = format: physicochemical; settings: phosphate buffered saline, pH 7.4, phosphate buffered saline at pH 7.4; read-out: Aqueous Solubility by CAD
Method: A CAD solubility assay was carried out by Physchem Team, Discovery Analytical, NCE Molecular Discovery at GSK. 5 μL of 10 mM DMSO stock solution was diluted to 100 μL with pH 7.4 phosphate buffered saline, equilibrated for 1 h at room temperature, and filtered through Millipore MultiscreenHTS-PCF filter plates (MSSL BPC). The filtrate was quantified using a suitably calibrated charged aerosol detector.[45]

[1] = read-out: Schistosomla Movement EC50
[2] = read-out: Schistosomla Phenotype EC50
[3] = ITC, single run ± error of curve fit, Repeat 1
[4] = ITC, single value ± error of the curve fit or mean of 2-3 repeats ± s.e.m.
[5] = SmBRD3(1,2) Kd, ITC, n = 1 ± error of the curve fit
[6] = ITC, read-out: SmBRD3(2) pKd (converted)
[7] = ITC, single run ± error of curve fit, Repeat 2, read-out: SmBRD3(2) Kd, Repeat 2
[8] = read-out: SmBRD3(2) Kd, Repeat 1
[9] = 20 μM (Figure 7) or 10 μM (Figure S48)
[10] = ITC, single run ± error of curve fit, Repeat 3, read-out: SmBRD3(2) Kd, Repeat 3

Sequence of SmBRD3(2) (A0A5K4ESD7 entry or part of it): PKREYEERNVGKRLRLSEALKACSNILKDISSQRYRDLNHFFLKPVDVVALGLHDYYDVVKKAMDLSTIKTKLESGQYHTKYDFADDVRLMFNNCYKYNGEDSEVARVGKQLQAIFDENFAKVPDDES
Sequence of SmBRD3(1,2) (A0A5K4ESD7 entry or part of it): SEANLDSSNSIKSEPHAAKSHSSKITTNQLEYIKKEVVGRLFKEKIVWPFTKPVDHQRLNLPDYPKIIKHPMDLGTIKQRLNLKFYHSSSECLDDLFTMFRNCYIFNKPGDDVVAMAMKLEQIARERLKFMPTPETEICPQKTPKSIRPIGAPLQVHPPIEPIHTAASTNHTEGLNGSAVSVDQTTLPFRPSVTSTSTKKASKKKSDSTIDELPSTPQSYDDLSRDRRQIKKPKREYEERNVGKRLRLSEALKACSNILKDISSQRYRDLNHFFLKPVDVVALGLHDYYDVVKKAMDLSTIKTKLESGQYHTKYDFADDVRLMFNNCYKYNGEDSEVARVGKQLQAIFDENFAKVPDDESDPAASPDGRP

Row | SmBRD3(2) Kd (SmBRD3(2)) | SmBRD3(2) Kd, Repeat 1 (SmBRD3(2)) | N number, binding to SmBRD3(2), Repeat 1 (SmBRD3(2); Repeat 1) | N number, binding to SmBRD3(2), Repeat 2 (SmBRD3(2); Repeat 2) | N number, binding to SmBRD3(2), Mean (SmBRD3(2)) | Kd (SmBRD3(2); [6]) [nM] | Kd (SmBRD3(2); [7]) [nM] | Kd (SmBRD3(2); read-out: SmBRD3(2) Kd) [nM] | Compound | Effect on adult worm movement (S. mansoni adult worms) | also measured
1 | No binding | No binding | – | – | – | – | – | – | CCOC(=O)c1ccc(-c2ccc3c(c2)[C@H](Nc2ccc4[nH]ccc4c2)C[C@H](C)N3C(C)=O)cc1 [Compound 20, Ethyl 4-{(2S,4R)-1-Acetyl-4-[(1H-indol-5-yl)amino]-2-methyl-1,2,3,4-tetrahydroquinolin-6-yl}benzoate] | substantial effects | Antischistosomula activity at 10 μM (S. mansoni schistosomula): active; EC50 (S. mansoni schistosomula; [1]): 1810 nM; EC50 (S. mansoni schistosomula; [2]): 2970 nM
2 | – | – | – | – | – | – | – | – | Cc1noc(C)c1-c1cc(O)cc(C(O)c2cccnc2)c1 (centres unmarked) [OXFBD04 (4), OXFBD04, reference compound] | – | SmBRD3(2) Kd, Repeat 1 (SmBRD3(2); [3]): No binding; SmBRD3(2) Kd (SmBRD3(2); [4]): No detectable binding; N number, binding to SmBRD3(1,2) (SmBRD3(1,2)): 1.39 ± 2.0e-2; Kd (SmBRD3(1,2); [5]): 2950 ± 261 nM; Kd (SmBRD3(1,2); SmBRD3(1,2) pKd, ITC): 3160 nM; Effect on miracidia to sporocyst transformation (S. mansoni miracidia): modest effects
3 | – | – | – | – | – | – | – | – | Cc1noc(C)c1-c1cc(O)cc(C(O)c2ccc(F)cc2)c1 (centres unmarked) [Compound 3, OXFBD02-F, reference compound] | – | SmBRD3(2) Kd, Repeat 1 (SmBRD3(2); [3]): No binding; SmBRD3(2) Kd (SmBRD3(2); [4]): No detectable binding; N number, binding to SmBRD3(1,2) (SmBRD3(1,2)): 1.05 ± 3.9e-2; Kd (SmBRD3(1,2); [5]): 1750 ± 301 nM; Kd (SmBRD3(1,2); SmBRD3(1,2) pKd, ITC): 1580 nM
4 | – | – | 1.54 ± 2.5e-2 | 1.49 ± 3.0e-2 | 1.52 | 1260 | 1300 ± 236 | 1180 ± 120 | CC(=O)N1c2ccc(-c3ccc(C(=O)O)cc3)cc2[C@H](Nc2ccc3ccoc3c2)C[C@@H]1C [Compound 11, 4-((2S,4R)-1-Acetyl-4-[(1-benzofuran-6-yl)amino]-2-methyl-1,2,3,4-tetrahydroquinolin-6-yl)benzoic Acid] | – | Kd (SmBRD3(2); [8]): 1060 ± 164 nM
5 | No binding | No binding | – | – | – | – | – | – | CCOC(=O)c1ccc(-c2ccc3c(c2)[C@H](Nc2ccc4sccc4c2)C[C@H](C)N3C(C)=O)cc1 [Compound 19] | – | –
6 | No binding | No binding | – | – | – | – | – | – | CCOC(=O)c1ccc(-c2ccc3c(c2)[C@H](Nc2ccc4ccoc4c2)C[C@H](C)N3C(C)=O)cc1 [Compound 18, Ethyl 4-{(2S,4R)-1-Acetyl-4-[(1-benzofuran-6-yl)amino]-2-methyl-1,2,3,4-tetrahydroquinolin-6-yl}benzoate] | substantial effects | Antischistosomula activity at 10 μM (S. mansoni schistosomula): active; Effect on schistosomula motility (S. mansoni schistosomula; [9]): substantial effects; EC50 (S. mansoni schistosomula; [1]): 3920 nM; EC50 (S. mansoni schistosomula; [2]): 2430 nM
7 | No binding | No binding | – | – | – | – | – | – | CCOC(=O)c1ccc(-c2ccc3c(c2)[C@H](Nc2ccc4ncsc4c2)C[C@H](C)N3C(C)=O)cc1 [Compound 21, Ethyl 4-{(2S,4R)1-Acetyl-4-[(1,3-benzothiazol-6-yl)amino]-2-methyl-1,2,3,4-tetrahydroquinolin-6-yl}benzoate] | substantial effects | Antischistosomula activity at 10 μM (S. mansoni schistosomula): active; Effect on schistosomula motility (S. mansoni schistosomula; [9]): greatest effects; Effect on schistosomula phenotype (S. mansoni schistosomula; [9]): greatest effects; EC50 (S. mansoni schistosomula; [1]): 2850 nM; EC50 (S. mansoni schistosomula; [2]): 2140 nM
8 | – | – | 1.52 ± 2.0e-2 | 1.71 ± 1.8e-2 | 1.61 | 631 | 652 ± 78.5 | 651 ± 12.7 | CC(=O)N1c2ccc(-c3ccc(C(=O)O)cc3)cc2[C@H](Nc2ccc3[nH]ccc3c2)C[C@@H]1C [Compound 13, 4-{(2S,4R)-1-Acetyl-4-[(1H-indol-5-yl)amino]-2-methyl-1,2,3,4-tetrahydroquinolin-6-yl}benzoic Acid] | – | N number, binding to SmBRD3(2), Repeat 3 (SmBRD3(2); Repeat 3): 1.60 ± 1.6e-2; Kd (SmBRD3(2); [10]): 672 ± 76 nM; Kd (SmBRD3(2); [8]): 628 ± 94.9 nM
9 | – | – | 1.42 ± 2.4e-2 | 1.54 ± 0.101 | 1.48 | 1260 | 1270 ± 779 | 1180 ± 86.7 | CC(=O)N1c2ccc(-c3ccc(C(=O)O)cc3)cc2[C@H](Nc2ccc3ncsc3c2)C[C@@H]1C [Compound 14, 4-{(2S,4R)-1-Acetyl-4-[(1,3-benzothiazol-6-yl)amino]-2-methyl-1,2,3,4-tetrahydroquinolin-6-yl}benzoic acid] | – | N number, binding to SmBRD3(2), Repeat 3 (SmBRD3(2); Repeat 3): 1.49 ± 5.4e-2; Kd (SmBRD3(2); ITC, single run ± error of curve fit, Repeat 1, read-out: SmBRD3(2) Kd, Repeat 1): 1010 ± 160 nM; Kd (SmBRD3(2); [10]): 1270 ± 349 nM; chromatographic logD (chromLogD assay): 1.78; solubility at 1 h (CAD solubility assay): ≥ 260 µM
10 | – | – | 1.51 ± 1.8e-2 | 1.55 ± 1.4e-2 | 1.53 | 501 | 543 ± 60.3 | 553 ± 9.5 | CC(=O)N1c2ccc(-c3ccc(C(=O)O)cc3)cc2[C@H](Nc2ccc3sccc3c2)C[C@@H]1C [Compound 12, 4-((2S,4R)-1-Acetyl-4-[(1-benzothiophen-5-yl)amino]-2-methyl-1,2,3,4-tetrahydroquinolin-6-yl)benzoic Acid] | – | Kd (SmBRD3(2); [8]): 562 ± 79.1 nM
11 | No binding | No binding | – | – | – | – | – | – | CCOC(=O)c1ccc(-c2ccc3c(c2)[C@H](Nc2ccc4ccsc4c2)C[C@H](C)N3C(C)=O)cc1 [Compound 16, Ethyl 4-{(2S,4R)-1-Acetyl-4-[(1-benzothiophen-6-yl)amino]-2-methyl-1,2,3,4-tetrahydroquinolin-6-yl}benzoate] | substantial effects | Effect on miracidia to sporocyst transformation (S. mansoni miracidia): concentration-dependent inhibition

Row | Compound | SmBRD3(2) Kd (SmBRD3(2)) | SmBRD3(2) Kd, Repeat 1 (SmBRD3(2)) | N number, binding to SmBRD3(2), Repeat 1 (SmBRD3(2); Repeat 1) | N number, binding to SmBRD3(2), Repeat 2 (SmBRD3(2); Repeat 2) | N number, binding to SmBRD3(2), Mean (SmBRD3(2)) | Kd (SmBRD3(2); [6]) [nM] | Kd (SmBRD3(2); [7]) [nM] | Kd (SmBRD3(2); read-out: SmBRD3(2) Kd) [nM] | Effect on adult worm movement (S. mansoni adult worms) | also measured
12 | CC(=O)N1c2ccc(-c3ccc(C(=O)O)cc3)cc2[C@@H](Nc2ccc3ccsc3c2)C[C@H]1C [Compound 10, 4-{(2R,4S)-1-Acetyl-4-[(1-benzothiophen-6-yl)amino]-2-methyl-1,2,3,4-tetrahydroquinolin-6-yl}benzoic Acid] | No detectable binding; also recorded: does not bind | No binding | – | – | – | – | – | – | – | SmBRD3(1,2) Kd (SmBRD3(1,2); ITC, n = 1 ± error of the curve fit): No detectable binding; chromatographic logD (chromLogD assay): 2.83; solubility at 1 h (CAD solubility assay): > 259 µM
